Measured values: patent US20240108008A1, “COMPOSITIONS COMPRISING MESOSULFURON-METHYL AND TEHP” (BAYER AKTIENGESELLSCHAFT, priority 2020, published 2024)

Key:
TRZAW, winter wheat = test: Greenhouse selectivity trials, wheat crop injury post-emergence; type: in vivo, winter wheat (variety: Dekan); details: 2 kg of TEHP per hectare, in combination with mesosulfuron-methyl and/or a salt thereof
Description: The 00 damage (injury) indicated refers to the maximum damage observed in the respective crop.

harmful plants = test: Adjuvant effect on performance of mesosulfuron-methyl; type: in vivo; details: same application rate as tri(butoxyethyl) phosphate (TBEP)

SMILES: CCCCC(CC)COP(=O)(OCC(CC)CCCC)OCC(CC)CCCC (centres unmarked) [TEHP, Tris(2-ethylhexyl) phosphate]
- phytotoxic effects in crop plants such as wheat (TRZAW, winter wheat): significant phytotoxic effects
- effects as adjuvant in comparison to TBEP (harmful plants): superior
